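Values below derive from 48-hour exposures of cells grown in 96-well plates, with endpoints linearly interpolated between the two concentrations bracketing the appropriate inhibition level. Here, GI50 denotes the concentration required for 50% inhibition of growth.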 Calls of active or inactive are those of the source. No stated cut-off is given here; in the data, active = GI50 up to about 1.1 µM and inactive = higher.
What was measured:
Assay in all cases: growth of human tumour cells (NCI), 48 h
786-0 = test system: 786-0
A498 = test system: A498
A549 = test system: A549
ACHN = test system: ACHN
BT-549 = test system: BT-549
CAKI-1 = test system: CAKI-1
CCRF-CEM = test system: CCRF-CEM
COLO 205 = test system: COLO 205
DU-145 = test system: DU-145
EKVX = test system: EKVX
HCC 2998 = test system: HCC 2998
HCT-116 = test system: HCT-116
HCT-15 = test system: HCT-15
HL-60 = test system: HL-60
HOP-62 = test system: HOP-62
HOP-92 = test system: HOP-92
HT-29 = test system: HT-29
Hs-578T = test system: Hs-578T
IGROV-1 = test system: IGROV-1
K562 = test system: K562
KM12 = test system: KM12
LOX IMVI = test system: LOX IMVI
M14 = test system: M14
MCF7 = test system: MCF7
MDA-MB-231 = test system: MDA-MB-231
MDA-MB-435 = test system: MDA-MB-435
MDA-N = test system: MDA-N
MOLT-4 = test system: MOLT-4
Malme-3M = test system: Malme-3M
NCI-H226 = test system: NCI-H226
NCI-H23 = test system: NCI-H23
NCI-H460 = test system: NCI-H460
NCI-H522 = test system: NCI-H522
NCI/ADR-RES = test system: NCI/ADR-RES
OVCAR-3 = test system: OVCAR-3
OVCAR-4 = test system: OVCAR-4
OVCAR-5 = test system: OVCAR-5
OVCAR-8 = test system: OVCAR-8
PC-3 = test system: PC-3
RPMI-8226 = test system: RPMI-8226
RXF 393 = test system: RXF 393
SF-268 = test system: SF-268
SF-295 = test system: SF-295
SF-539 = test system: SF-539
SK-MEL-28 = test system: SK-MEL-28
SK-MEL-2 = test system: SK-MEL-2
SK-MEL-5 = test system: SK-MEL-5
SK-OV-3 = test system: SK-OV-3
SN12C = test system: SN12C
SNB-19 = test system: SNB-19
SNB-75 = test system: SNB-75
SR = test system: SR
SW-620 = test system: SW-620
T47D = test system: T47D
TK-10 = test system: TK-10
U-251 = test system: U-251
UACC-257 = test system: UACC-257
UACC-62 = test system: UACC-62
UO-31 = test system: UO-31

COCOC1/C=C/CCCCC2=C(C)C=C(C1)O2 (centres undefined)
GI50 (786-0): > 100 µM (inactive)
GI50 (A498): > 100 µM (inactive)
GI50 (A549): > 100 µM (inactive)
GI50 (ACHN): > 100 µM (inactive)
GI50 (BT-549): > 100 µM (inactive)
GI50 (CAKI-1): > 100 µM (inactive)
GI50 (CCRF-CEM): > 100 µM (inactive)
GI50 (COLO 205): > 100 µM (inactive)
GI50 (DU-145): > 100 µM (inactive)
GI50 (EKVX): > 100 µM (inactive)
GI50 (HCC 2998): > 100 µM (inactive)
GI50 (HCT-116): > 100 µM (inactive)
GI50 (HCT-15): > 100 µM
GI50 (HL-60): 45.4 µM (inactive)
GI50 (HOP-62): > 100 µM (inactive)
GI50 (HOP-92): > 100 µM (inactive)
GI50 (HT-29): > 100 µM (inactive)
GI50 (Hs-578T): > 100 µM (inactive)
GI50 (IGROV-1): > 100 µM (inactive)
GI50 (K562): > 100 µM (inactive)
GI50 (KM12): > 100 µM (inactive)
GI50 (LOX IMVI): > 100 µM (inactive)
GI50 (M14): > 100 µM (inactive)
GI50 (MCF7): > 100 µM (inactive)
GI50 (MDA-MB-231): > 100 µM (inactive)
GI50 (MDA-MB-435): > 100 µM (inactive)
GI50 (MDA-N): > 100 µM (inactive)
GI50 (MOLT-4): > 100 µM (inactive)
GI50 (Malme-3M): > 100 µM (inactive)
GI50 (NCI-H226): > 100 µM (inactive)
GI50 (NCI-H23): > 100 µM (inactive)
GI50 (NCI-H460): > 100 µM (inactive)
GI50 (NCI-H522): > 100 µM (inactive)
GI50 (NCI/ADR-RES): > 100 µM (inactive)
GI50 (OVCAR-3): > 100 µM (inactive)
GI50 (OVCAR-4): > 100 µM (inactive)
GI50 (OVCAR-5): > 100 µM (inactive)
GI50 (OVCAR-8): > 100 µM (inactive)
GI50 (PC-3): > 100 µM (inactive)
GI50 (RPMI-8226): > 100 µM (inactive)
GI50 (RXF 393): > 100 µM (inactive)
GI50 (SF-268): > 100 µM (inactive)
GI50 (SF-295): > 100 µM (inactive)
GI50 (SF-539): > 100 µM (inactive)
GI50 (SK-MEL-28): > 100 µM (inactive)
GI50 (SK-MEL-2): > 100 µM (inactive)
GI50 (SK-MEL-5): > 100 µM (inactive)
GI50 (SK-OV-3): > 100 µM (inactive)
GI50 (SN12C): > 100 µM (inactive)
GI50 (SNB-19): > 100 µM (inactive)
GI50 (SNB-75): > 100 µM (inactive)
GI50 (SR): > 100 µM (inactive)
GI50 (SW-620): > 100 µM (inactive)
GI50 (T47D): > 100 µM (inactive)
GI50 (TK-10): > 100 µM (inactive)
GI50 (U-251): > 100 µM (inactive)
GI50 (UACC-257): > 100 µM (inactive)
GI50 (UACC-62): > 100 µM (inactive)
GI50 (UO-31): > 100 µM (inactive)
